Laboratory results: patent US20180353483A1, “PHARMACEUTICAL COMPOSITIONS AND METHODS FOR INDOLEAMINE, 2, 3-DIOXYGENASE INHIBITION AND INDICATIONS THEREFOR” (Incyte Corporation, priority 2015, published 2018)
Several values for one entry are separate records, joined by “and”; a condition that tells them apart may be missing. Identical values can stand only once.

Assay: Pharmacokinetics of Compound 1 in combination with MK-3475 in subjects with various cancers
Assay type: in vivo, human
Experimental: The subjects were not limited to a specific cancers and study include subjects with various cancers. […] One treatment cycle consisted of 21 days. […] Additional subjects were enrolled in a cohort to achieve the minimum of 3 evaluable subjects if dropouts or dose interruptions or reductions occur that result in a subject being non-evaluable for DLTs. […] An additional safety cohort was opened at 100 mg BID in parallel to 300 mg BID being tested. This may also be limited to subjects with melanoma, NSCLC, or specific cancer types from among those included in Phase 1. The RP2D was selected from the evaluated safety expansions.
If a dose was missed by more than 4 hours, that dose was skipped and was resumed at the scheduled time.
Pharmacokinetic samples were obtained at the visits of Cycle 1 Day 1, Cycle 1 Day 8 and Cycle 2 Day 1. […] The exact date and time of the PK blood draws were recorded in the eCRF along with the date and time of the last dose of study drug and details of the last meal preceding the blood draw.
The planned PK time points were used for preliminary PK analyses.

[1] = Cohort 1, 25 mg, first dose, geometric mean
[2] = Cohort 1, 25 mg, first dose, mean ± SD
[3] = Cohort 6, 300 mg BID, steady state C1D8, mean ± SD
[4] = Diagnosis DLBCL, steady state C1D8, individual values of 2 subjects
[5] = Diagnosis RCC, first dose, individual values of 2 subjects

Work on `NS(=O)(=O)NCCNc1nonc1C(=NO)Nc1ccc(F)c(Br)c1` [Compound 1, 4-({2-[(aminosulfonyl)amino]ethyl}amino)-N-(3-bromo-4-fluorophenyl)-N′-hydroxy-1,2,5-oxadiazole-3-carboximidamide] yielded a tmax (All diagnoses, first dose, median) of 2.00 h, a CL/F (All diagnoses, steady state C1D8, mean ± SD) of 28.7 ± 10.3 L/h and a tmax (All diagnoses, steady state C1D8, median) of 2.00 h. For the same molecule, the CL/F (Cohort 1, 25 mg BID, steady state C1D8, mean ± SD) was 46.2 ± 8.91 L/h, the tmax (Cohort 1, 25 mg BID, steady state C1D8, median) was 1.00 h and the AUC(0-t) [1] was “(0.650) μM * h”. The Cmax [1] was 199 nM, the AUC(0-t) [2] was 0.711 ± 0.349 µM·h and the Cmax [2] was 231 ± 151 nM. For the same molecule, the tmax (Cohort 1, 25 mg, first dose, median) was 2.00 h, the CL/F (Cohort 2, 50 mg BID, steady state C1D8, mean ± SD) was 52.6 ± 22.4 L/h and the tmax (Cohort 2, 50 mg BID, steady state C1D8, median) was 2.00 h. The Cmax (Cohort 2, 50 mg, first dose, geometric mean) was 543 nM, the tmax (Cohort 2, 50 mg, first dose, median) was 2.00 h and the Cmax (Cohort 3, 100 mg BID, steady state C1D8, geometric mean) was 814 nM. For the same molecule, the CL/F (Cohort 3, 100 mg BID, steady state C1D8, mean ± SD) was 67.4 ± 34.9 L/h, the tmax (Cohort 3, 100 mg BID, steady state C1D8, median) was 2.00 h and the CL/F (Cohort 4 (MEL), 50 mg BID, steady state C1D8, mean ± SD) was 78.3 ± 28.9 L/h. The tmax (Cohort 4 (MEL), 50 mg, first dose, median) was 1.00 h, the Cmax (Cohort 5, 100 mg BID, steady state C1D8, geometric mean) was 803 nM and the CL/F (Cohort 5, 100 mg BID, steady state C1D8, mean ± SD) was 69.6 ± 28.4 L/h. For the same molecule, the tmax (Cohort 5, 100 mg BID, steady state C1D8, median) was 2.00 h, the Cmax (Cohort 6, 300 mg BID, steady state C1D8, geometric mean) was 2500 nM and the CL/F [3] was 64.8 ± 23.2 L/h. The Cmax [3] was 2710 ± 1220 nM, the tmax (Cohort 6, 300 mg BID, steady state C1D8, median) was 2.00 h and the tmax (Cohort 6, 300 mg, first dose, median) was 2.00 h. It also gave a Cmax (Cohort 7, 300 mg BID, steady state C1D8, geometric mean) of 2520 nM, a CL/F (Cohort 7, 300 mg BID, steady state C1D8, mean ± SD) of 65 ± 23.4 L/h and a tmax (Cohort 7, 300 mg BID, steady state C1D8, median) of 2.00 h. The tmax (Cohort 7, 300 mg, first dose, median) was 2.00 h, the AUC(0-t) (Diagnosis DLBCL, first dose, mean ± SD) was 2.29 ± 1.16 µM·h and the AUC0-12 h [4] was 3.99 µM·h. For the same molecule, the CL/F [4] was 21.4 L/h and 28.6 L/h, the Cmax [4] was 904 nM and the tmax [4] was 4.0, 4.0 h. For the same molecule, the tmax (Diagnosis GU, first dose, median) was 2.00 h, the CL/F (Diagnosis GU, steady state C1D8, mean ± SD) was 28.1 ± 10.0 L/h and the tmax (Diagnosis GU, steady state C1D8, median) was 2.00 h. For the same molecule, the Cmax (Diagnosis MEL, first dose, geometric mean) was 809 nM, the tmax (Diagnosis MEL, first dose, median) was 2.00 h and the CL/F (Diagnosis MEL, steady state C1D8, mean ± SD) was 33.0 ± 10.0 L/h. The tmax (Diagnosis MEL, steady state C1D8, median) was 2.00 h, the Cmax (Diagnosis NSCLC PD-L1 High, steady state C1D8, geometric mean) was 815 nM and the CL/F (Diagnosis NSCLC PD-L1 High, steady state C1D8, mean ± SD) was 29.2 ± 10.4 L/h. It also gave a Cmax (Diagnosis NSCLC PD-L1 Low/NE, first dose, mean ± SD) of 914 ± 343 nM, a tmax (Diagnosis NSCLC PD-L1 Low/NE, first dose, median) of 1.00 h and a CL/F (Diagnosis NSCLC PD-L1 Low/NE, steady state C1D8, mean ± SD) of 26.9 ± 4.57 L/h. For the same molecule, the tmax (Diagnosis NSCLC PD-L1 Low/NE, steady state C1D8, median) was 2.00 h, the tmax (Diagnosis OC, first dose, median) was 2.00 h and the CL/F (Diagnosis OC, steady state C1D8, mean ± SD) was 27.9 ± 8.82 L/h. For the same molecule, the tmax (Diagnosis OC, steady state C1D8, median) was 2.00 h, the AUC(0-t) [5] was 3.58 µM·h and 1.74 µM·h and the Cmax [5] was 1350 nM and 418 nM. For the same molecule, the tmax [5] was 2.0 h, the AUC(0-t) (Diagnosis SCCHN, first dose, mean ± SD) was 2.32 ± 1.10 µM·h and the tmax (Diagnosis SCCHN, first dose, median) was 2.00 h. It also gave a CL/F (Diagnosis SCCHN, steady state C1D8, mean ± SD) of 33.3 ± 15.5 L/h, a tmax (Diagnosis SCCHN, steady state C1D8, median) of 2.00 h and a tmax (Diagnosis TNBC, first dose, median) of 2.00 h. For the same molecule, the CL/F (Diagnosis TNBC, steady state C1D8, mean ± SD) was 25.7 ± 8.22 L/h.
